1 compound from ChEMBL document CHEMBL5143537, “Quinazoline-based hydroxamic acid derivatives as dual histone methylation and deacetylation inhibitors for potential anticancer agents” (Bioorg Med Chem, 2022) can be followed below.

Each structure is given as a SMILES string. Calls of active or inactive are those of the source. The rule behind the calls is not given here.

One may read the IC50 as the concentration needed to halve the response being measured. High values mean weaker potency, low ones greater potency.

Data set [1] relates to HCT-116. The data set is described as follows: Antiproliferative activity against human HCT-116 cells measured after 72 hrs by MTT assay. The format is functional, cell-based. Particulars: HCT-116, 72 h.
Data set [2] in a line: Metabolic stability in rat liver microsomes assessed as parent compound remaining at 1 uM measured after 5 mins by LC-MS/MS analysis. To be noted: read-out: Stability. The format is ADME, Microsome.
Data set [3] has as its system HepG2. The data set is described as follows: Induction of apoptosis in human HepG2 cells assessed as increase in cleaved caspase-3 expression at 1.25 to 20 uM measured after 48 hrs by Western blot analysis. In kind it is functional, cell-based. Particulars: dose 1.25-20 µM. On the technique in general: Immunoblotting shows a protein as a band on a membrane.
Data set [4] addresses T1, Histone-lysine N-methyltransferase EHMT1 (Homo sapiens) (UniProt Q9H9B1).
T1 sequence (whole entry): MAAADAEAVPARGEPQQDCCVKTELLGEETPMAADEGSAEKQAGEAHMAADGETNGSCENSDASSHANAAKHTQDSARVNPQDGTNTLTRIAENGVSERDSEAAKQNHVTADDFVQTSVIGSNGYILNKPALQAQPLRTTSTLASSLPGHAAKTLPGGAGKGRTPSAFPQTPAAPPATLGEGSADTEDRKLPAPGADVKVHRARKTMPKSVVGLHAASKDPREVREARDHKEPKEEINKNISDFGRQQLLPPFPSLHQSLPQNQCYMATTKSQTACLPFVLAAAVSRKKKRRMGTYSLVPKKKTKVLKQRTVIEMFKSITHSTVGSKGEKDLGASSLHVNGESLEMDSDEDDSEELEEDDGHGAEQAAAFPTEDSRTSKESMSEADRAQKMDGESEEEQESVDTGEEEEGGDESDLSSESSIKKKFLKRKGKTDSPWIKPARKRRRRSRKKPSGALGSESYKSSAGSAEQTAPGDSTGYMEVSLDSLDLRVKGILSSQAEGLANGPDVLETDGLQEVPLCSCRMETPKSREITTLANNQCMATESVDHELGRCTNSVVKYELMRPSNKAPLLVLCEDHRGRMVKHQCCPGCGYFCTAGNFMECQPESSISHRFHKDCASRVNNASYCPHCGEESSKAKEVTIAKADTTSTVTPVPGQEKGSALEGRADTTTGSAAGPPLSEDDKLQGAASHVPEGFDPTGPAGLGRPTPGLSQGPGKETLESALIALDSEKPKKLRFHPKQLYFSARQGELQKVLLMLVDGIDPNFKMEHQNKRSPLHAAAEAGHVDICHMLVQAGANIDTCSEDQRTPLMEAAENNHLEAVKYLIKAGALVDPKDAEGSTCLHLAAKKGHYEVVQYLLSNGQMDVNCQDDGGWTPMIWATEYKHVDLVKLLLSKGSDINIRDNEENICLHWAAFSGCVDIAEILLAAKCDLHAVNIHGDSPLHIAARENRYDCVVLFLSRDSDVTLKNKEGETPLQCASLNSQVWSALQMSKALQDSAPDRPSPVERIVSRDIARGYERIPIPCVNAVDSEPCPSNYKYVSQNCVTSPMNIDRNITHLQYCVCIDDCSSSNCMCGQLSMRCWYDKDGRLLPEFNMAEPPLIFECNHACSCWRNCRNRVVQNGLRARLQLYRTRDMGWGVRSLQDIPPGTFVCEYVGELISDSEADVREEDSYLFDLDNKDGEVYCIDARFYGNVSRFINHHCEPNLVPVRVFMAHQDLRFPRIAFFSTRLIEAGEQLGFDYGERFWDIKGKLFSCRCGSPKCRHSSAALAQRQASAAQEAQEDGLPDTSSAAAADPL
The data set is described as follows: Inhibition of GLP in human HepG2 cells assessed as reduction in H3K9Me2 expression at 1.25 to 20 uM measured after 24 hrs by Western blot analysis. In kind it is cell-based. Particulars: dose 1.25-20 µM.

A short description of data set [5]: Effect on H3 expression in human HepG2 cells at 1.25 to 25 uM measured after 24 hrs by Western blot analysis. In kind it is toxicity, cell-based. Particulars: hepg2, 24 h, dose 1.25-25 µM.
The subject of data set [6] is HepG2. The data set can be described thus: Induction of apoptosis in human HepG2 cells assessed as viable cells at 5 uM measured after 48 hrs by Annexin V-FITC/propidium iodide staining based flow cytometry (reference value: 88.58%). The format is functional. Particulars: read-out: Activity. In general terms: Flow cytometry measures light scatter and fluorescence of single cells or particles in a stream.

Data set [7] deals with HepG2. The data set can be described thus: Induction of apoptosis in human HepG2 cells assessed as early apoptotic cells at 20 uM measured after 48 hrs by Annexin V-FITC/propidium iodide staining based flow cytometry (reference value: 6.87%). In kind it is functional.
Data set [8] deals with HepG2. The data set can be described thus: Induction of apoptosis in human HepG2 cells assessed as necrotic cells at 20 uM measured after 48 hrs by Annexin V-FITC/propidium iodide staining based flow cytometry (reference value: 0%). In kind it is functional.
The test system of data set [9] is HepG2. The data set is described as follows: Induction of apoptosis in human HepG2 cells assessed as increase in cleaved caspase-9 expression at 1.25 to 20 uM measured after 48 hrs by Western blot analysis. In kind it is functional, cell-based. Particulars: dose 1.25-20 µM.
The test system of data set [10] is HepG2. The data set can be described thus: Cell cycle arrest in human HepG2 cells assessed as accumulation at S phase at 5 uM measured after 48 hrs by propidium iodide staining based flow cytometry (reference value: 32.39%). In kind it is functional.
The subject of data set [11] is HepG2. The data set can be described thus: Cell cycle arrest in human HepG2 cells assessed as accumulation at G2/M phase at 10 uM measured after 48 hrs by propidium iodide staining based flow cytometry (reference value: 12.37%). The format is functional.
Data set [12] is described as follows: Metabolic stability in rat liver microsomes assessed as parent compound remaining at 1 uM measured after 45 mins by LC-MS/MS analysis. The format is ADME, Microsome. Particulars: read-out: Stability.
The nature of data set [13]: Intrinsic clearance in rat liver microsomes at 1 uM by LC-MS/MS analysis. The format is ADME, Microsome. Particulars: read-out: CLH. A general note: Microsomes from liver hold many membrane-bound enzymes, among them those of drug oxidation.

In [1], `COc1cc2nc(N3CCN(CCCCCC(=O)NO)CC3)nc(NC3CCN(Cc4ccccc4)CC3)c2cc1OC` registered a half-maximal inhibitory concentration (IC50) of 11.1 µM. Besides, the remaining at 5 min, 1 µM in [2] stood at 81.1%. The outcome in data set [3] and in data set [9] was Active. Moreover, the inhibition result in [4] was “Active”. In addition, the Activity entry in data set [5] was “Non-Toxic”; in [7], 49.75%; in data set [8], 0%; in data set [10] it was 28.81%; in [11], 15.52%. Moreover, the viability at 5 µM in [6] came out at 87.3%. Further, in data set [12], the remaining at 0.75 h, 1 µM is 14.2%. In data set [13], the CLint scaled at 1 µM came to 155 mL/min/kg.
